# Test results from patent US6215002A, “Pyrrolopyrrolone derivatives as inhibitors of neutrophil elastase” (priority 1996, dated 2001).
# Where a name gives a salt, the structure may show the parent alone.
# Assays:
# Intracellular elastase = assay: Oral in vivo model using IL-8 induced lung infiltrates for the assessment of intracellular elastase inhibition (hamster test); details: effective dose of less than 40 mg/kg, IL-8 intratracheal
# Procedure: An Oral in vivo Model Using IL-8 Induced Lung Infiltrates For the Assessment of Intracellular Elastase Inhibition
# Adult hamsters (100-150 g) are randomised into groups (n=4) and fasted overnight. Under gaseous anaesthetic (3% isofluorane) animals are dosed orally with 1 mL/100 g water as vehicle or containing predissolved compounds. Either at the same time, or subsequently under anaesthetic, animals are dosed intratracheally with 1 ug recombinant human IL-8 in 100 uL sterile saline. Six hours after IL-8 dosing animals are sacrificed using intrapertoneal pentobarbitone. The lungs are ravaged with 2×2.5 mL sterile saline and femurs are removed by dissection.
# Intracellular elastase is prepared from neutrophils collected by lavage and from femoral bone marrow. This is achieved by sonication of the neutrophils and centrifugation to yield intracellular granules. These are disrupted by freeze/thawing and sonication. Elastase and myeloperoxidase assays are then performed on these samples to assess the efficacy of the compounds and to normalise for neutrophil recovery.
# [1] = target: T1, human neutrophil elastase (Homo sapiens, UniProt P08246); assay: In vitro assay of human neutrophil elastase (HNE); type: biochemical; details: 118 nM purified human neutrophil elastase, pH 8.6, 15 min incubation at 30° C., MeO-succinyl-alanyl-alanyl-prolyl-valyl-p-nitroanilide substrate; read-out: HNE IC50
# T1 sequence (P08246 30-267): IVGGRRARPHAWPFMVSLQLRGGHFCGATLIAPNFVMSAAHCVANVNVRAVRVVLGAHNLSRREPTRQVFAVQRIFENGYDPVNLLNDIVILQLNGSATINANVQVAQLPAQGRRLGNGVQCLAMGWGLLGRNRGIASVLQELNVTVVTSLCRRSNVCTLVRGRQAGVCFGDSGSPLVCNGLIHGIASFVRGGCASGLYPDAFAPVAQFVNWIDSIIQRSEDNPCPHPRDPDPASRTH
# In short: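 Residual activity was taken as the 10 min rate of absorbance rise at 405 nm after adding 0.6 mM MeO-succinyl-AAPV-p-nitroanilide. Curve fitting of activity against concentration gave IC50.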
IC50 [1],Compound,duration of effect (Intracellular elastase)
139 nM,"CCC[C@H]1C(=O)N(S(C)(=O)=O)[C@H]2CCN(C(=O)CCN3CCCCC3)[C@H]12 (relative stereo) [Example 29, rel-(3R,3aR,6aS)-1-Methanesulfonyl-4-(3-piperidin-1-yl-propionyl)-3-propyl-hexahydro-pyrrolo[3,2-b]pyrrol-2-one]",at least 6 hours
27 nM,"CCC[C@H]1C(=O)N(S(C)(=O)=O)[C@H]2CCN(C(=O)/C=C/CN3CCCCC3)[C@H]12 (relative stereo) [Example 57, rel-(3R,3aR,6aS)-1-Methanesulfonyl-4-(4-piperidin-1-yl-but-2-(E)-enoyl-3-propyl-hexahydro-pyrrolo[3,2-b]pyrrol-2-one hydrochloride]",at least 6 hours
39 nM,"CCC[C@H]1C(=O)N(S(C)(=O)=O)[C@H]2CCN(C(=O)CCCCCN3CCCCCC3)[C@H]12 (relative stereo) [Example 59, hydrochloride]",at least 6 hours
47 nM,"CC(C)[C@H]1C(=O)N(S(C)(=O)=O)[C@H]2CCN(C(=O)CCCCCN3CCCCCC3)[C@H]12 (relative stereo) [Example 60, rel-(3R,3aR,6aS)-4-(6-Azepin-1-yl-hexanoyl-3-isopropyl-1-methanesulfonyl)-hexahydro-pyrrolo[3,2-b]pyrrol-2-one hydrochloride]",at least 6 hours
242 nM,"CC(C)[C@H]1C(=O)N(S(C)(=O)=O)[C@H]2CCN(C(=O)CCN3CCCCC3)[C@H]12 (relative stereo) [Example 61, rel-(3R,3aR,6aS)-3-isopropyl-1-methanesulfonyl-4-(3-piperidin-1yl-propionyl-hexahydro-pyrrolo[3,2-b]pyrrol-2-one hydrochloride]",at least 6 hours
10 nM,"CCC[C@H]1C(=O)N(S(C)(=O)=O)[C@H]2CCN(C(=O)c3ccc(CN4CCCCC4)cc3)[C@H]12 (relative stereo) [Example 62, rel-(3R,3aR,6aS)-1-Methanesulfonyl-1-4-(4-piperidin-1-ylmethyl-benzoyl)-3-propyl-hexahydro-pyrrolo[3,2-b]pyrrol-2-one]",at least 6 hours
22 nM,"CC(C)[C@H]1C(=O)N(S(C)(=O)=O)[C@H]2CCN(C(=O)/C=C/CN3CCCCCC3)[C@H]12 (relative stereo) [Example 136, hydrochloride]",at least 6 hours
42 nM,"CC(=O)N1CCN(C/C=C/C(=O)N2CC[C@H]3[C@H]2[C@@H](C(C)C)C(=O)N3S(C)(=O)=O)CC1.Cl (relative stereo) [Example 138, rel-(3R,3aR,6aS)-4-[4-(4-Acetyl-piperazin-1-yl)-but-2E-enoyl]-3-isopropyl-1-methanesulfonyl-hexahydro-pyrrolo[3,2-b]pyrrol-2-one hydrochloride]",at least 6 hours
55 nM,"CC(C)[C@H]1C(=O)N(S(C)(=O)=O)[C@H]2CCN(C(=O)/C=C/CN3C(C)CCCC3C)[C@H]12.Cl (relative stereo) [Example 139, rel-(3R,3aR,6aS)-4-[4-(2,6-Dimethyl-piperidin-1-yl)-but-2E-enoyl]-3-isopropyl-1-methanesulfonyl-hexahydro-pyrrolo[3,2-b]pyrrol-2-one hydrochloride]",at least 6 hours
62 nM,"CS(=O)(=O)N1C(=O)[C@H](C2CC2)[C@@H]2[C@@H]1CCN2C(=O)/C=C/CN1CCCCC1 (relative stereo) [Example 257, rel-(3R,3aR,6aS)-3-Cyclopropyl-1-methanesulfonyl-4-(4-piperidin-1-yl-but-2E-enoyl)-hexahydro-pyrrolo[3,2-b]pyrrol-2-one hydrochloride]",–
314 nM,"CCC[C@H]1C(=O)N(S(C)(=O)=O)[C@H]2CCN(C(=O)CCCCCN3CCCCCC3)[C@H]12 [Example 115, (3R,3aR,6aS)-4-(6-Azepin-1-yl-hexanoyl)-1-methanesulfonyl-3-propyl-hexahydro-pyrrolo[3,2-b]pyrrol-2-one hydrochloride]",–
417 nM,"CCC[C@H]1C(=O)N(S(C)(=O)=O)[C@H]2CCN(C(=O)CCN3CCCCC3)[C@H]12 [Example 116, (3R,3aR,6aS)-1-Methanesulfonyl-4-(3-piperidin-1-yl-propionyl)-3-propyl-hexahydro-pyrrolo[3,2-b]pyrrol-2-one hydrochloride]",–

# More lines, now with the values behind:
Compound,IC50 [1],duration of effect (Intracellular elastase)
"CCC[C@H]1C(=O)N(S(=O)(=O)c2ccc3ccccc3c2)[C@H]2CCN(C(=O)CCN3CCCCC3)[C@H]12 (relative stereo) [Example 2, rel-(3R,3aR,6aS)-1-(Naphthalene-2-sulfonyl)-4-(3-piperidin-1-yl-propionyl)-3-propyl-hexahydro-pyrrolo[3,2-b]pyrrol-2-one hydrochloride]",137 nM,at least 6 hours
"CCC[C@H]1C(=O)N(S(C)(=O)=O)[C@H]2CCN(C(=O)CCCCCN3CCOCC3)[C@H]12.O=C(O)C(O)C(O)C(=O)O (relative stereo) [Example 58, rel-(3R,3aR,6aS)-1-Methanesulfonyl-4-(6-morpholin-4-yl-hexanoyl)-3-propylhexahydro-pyrrolo[3,2-b]pyrrol-2-one 2,3-dihydroxysuccinate]",72 nM,at least 6 hours
"CCC[C@H]1C(=O)N(S(C)(=O)=O)[C@H]2CCN(S(=O)(=O)c3ccc(NC(C)=O)cc3)[C@H]12 (relative stereo) [Example 63, rel-N-[4-(4-Methanesulfonyl-5-oxo-6R-propyl-hexahydro-(3aS,6aR)-pyrrolo[3,2-b]pyrrole-1-sulfonyl)phenyl]-acetamide]",6 nM,at least 6 hours
"CC(C)[C@H]1C(=O)N(S(C)(=O)=O)[C@H]2CCN(C(=O)/C=C/CN3CCCCC3)[C@H]12.Cl (relative stereo) [Example 135, rel-(3R,3aR,6aS)-3-Isopropyl-1-methanesulfonyl-4-(4-piperidin-1-yl-but-2E-enoyl)-hexahydro-pyrrolo[3,2-b]pyrrol-2-one hydrochloride]",–,at least 6 hours
"CC(C)[C@H]1C(=O)N(S(C)(=O)=O)[C@H]2CCN(C(=O)/C=C/CNC3CC3)[C@H]12.Cl (relative stereo) [Example 137, rel-(3R,3aR,6aS)-4-(4-Cyclopropylamino-but-2E-enoyl)-3-isopropyl-1-methanesulfonyl-hexahydro-pyrrolo[3,2-b]pyrrol-2-one hydrochloride]",45 nM,at least 6 hours
"C=CC[C@@H]1C(=O)N(S(=O)(=O)c2ccc3ccccc3c2)[C@@H]2CCN(C(=O)OCc3ccccc3)[C@@H]12 [Example 53, (3aR,6S,6aS)-6-Allyl-4-(naphthalene-2-sulfonyl)-5-oxo-hexahydro-pyrrolo[3,2-n]pyrrole-1-carboxylic acid benzyl ester]",143 nM,–
"CCC[C@@H]1C(=O)N(S(=O)(=O)c2ccc3ccccc3c2)[C@@H]2CCN(C(=O)CCN3CCCCC3)[C@@H]12 [Example 54, (3S,3aS,6aR)-1-(Naphthalene-2-sulfonyl)-4-(3-piperidin-1-yl-propionyl)-3-propyl-hexahydro-pyrrolo[3,2-b]pyrrol-2-one hydrochloride]",120 nM,–
"C=CC[C@H]1C(=O)N(S(=O)(=O)c2ccc3ccccc3c2)[C@H]2CCN(C(=O)OCc3ccccc3)[C@H]12 [Example 55, (3aS,6R,6aR)-6-Allyl-4-(naphthalene-2-sulfonyl)-5-oxo-hexahydro-pyrrolo[3,2-b]pyrrole-1-carboxylic acid benzyl ester]",38 nM,–
"CCC[C@H]1C(=O)N(S(=O)(=O)c2ccc3ccccc3c2)[C@H]2CCN(C(=O)CCN3CCCCC3)[C@H]12 [Example 56, (3R,3aR,6aS)-1-(Naphthalene-2-sulfonyl)-4-(3-piperidin-1-yl-propionyl)-3-propyl-hexahydro-pyrrolo[3,2-b]pyrrol-2-one hydrochloride]",81 nM,–
"CC(C)[C@@H]1C(=O)N(S(C)(=O)=O)[C@@H]2CCN(C(=O)/C=C/CN3CCCCC3)[C@H]21.Cl [Example 154, (3S,3aS,6aR)-3-Isopropyl-1-methanesulfonyl-4-(4-piperidin-1-yl-but-2E-enoyl)-hexahydro-pyrrolo[3,2-b]pyrrol-2-one hydrochloride]",–,at least 6 hours
"CC(C)[C@H]1C(=O)N(S(C)(=O)=O)[C@H]2CCN(C(=O)/C=C/CN3CCCCC3)[C@H]12.Cl [Example 155, (3R,3aR,6aS)-3-Isopropyl-1-methanesulfonyl-4-(4-piperidin-1-yl-but-2E-enoyl)-hexahydro-pyrrolo[3,2-b]pyrrol-2-one hydrochloride]",–,at least 6 hours
"rel-(3aS,6R,6aR)-6-Allyl-4-benzylsulfamoyl-5-oxo-hexahydro-pyrrolo[3,2-b]pyrrole-1-carboxylic acid benzyl ester [Example 19]",5230 nM,–
